From PubChem BioAssay AID1919013 (Molecular Pharmacology Branch, DTP, NCI, 2023)
“And” between values parts separate entries of the source, which are not always exact repeats. Identical values can stand only once.

Tested on: LG0703-F498-PDC complex spheroid growth
Assay: Anticancer human tumor LG0703-F498-PDC patient-derived lung adenocarcinoma cell line growth inhibition [AhR]
Settings: for viability, T/C: stronger effect = lower value
Source text: Multicellular complex tumor spheroid response to aryl hydrocarbon receptor antagonists in combination with a variety of drugs and investigational agents in selected tumor cell lines
The current study was undertaken to assess response to aryl hydrocarbon receptor antagonists in combination with standard-of-care drugs and investigational agents in solid tumor complex spheroid models. Complex spheroids include a stromal component modeled by human endothelial cells (HUVEC) and fibroblasts modeled by human mesenchymal stem cells (MSCs). The concentration ranges selected for each drug and investigational agent were based upon clinically achievable concentrations if the clinical Cmax of the agent was known.
Compounds. The drugs and investigational agents: BAY 2416964 (NSC825713), GNF351 (NSC835774), CH-223191 (NSC835775), CPI-455 (NSC825282), aza-TdCyd (NSC777586), decitabine (NSC127716), belinostat (NSC758774), entinostat (NSC756642), pevonedistat (NSC761192), tazemetostat (NSC777109), talazoparib (NSC765396), olaparib (NSC753686), selinexor (NSC780203), nedisertib (M3814, NSC802822), bortezomib (NSC756655), venetoclax (NSC766270), doxorubicin (NSC123127), elimusertib (BAY189344, NSC800525), ceralasertib (AZD6738, NSC777638), TAK-243 (NSC785004), alisertib (NSC759677), etoposide (NSC141540), topotecan (NSC609699), eribulin (NSC707389), gemcitabine (NSC613327), carboplatin (NSC241240), cisplatin (NSC119875), and SN-38 (NSC673596) were obtained from the National Cancer Institute (NCI) Developmental Therapeutics Program Chemical Repository (32). The FDA-approved anticancer drug set is available from the Developmental Therapeutics Program at https://dtp.cancer.gov/organization/dscb/obtaining/available plates.htm. […] The stock solutions were prepared in dimethyl sulfoxide (DMSO, Sigma-Aldrich, St. Louis, MO, cat. D2650), except for the platinum compounds which were prepared in saline (Quality Biological, Gaithersburg, MD, cat. 114-055-101), at 800-fold the tested concentration and stored at -70 degrees C prior to their use. All drugs and investigational agents were tested over a range starting from a high concentration at or near the clinical Cmax and decreasing in half-log increments. If the clinical Cmax for an agent had not been determined, the highest concentration tested was 10 microM (Table 1).
Cell Culture. All cells were maintained in an incubator at 37 degrees C and 5% CO2 with 95% humidity. The PDC lines were cultured according to standard operating procedures established by the NCI PDMR (https://pdmr.cancer.gov). Briefly, all PDCs were thawed and cultured in Matrigel-coated flasks prepared with a working solution of 1X Ham's F-12 nutrient mix, without supplementation (Invitrogen, Waltham, MA, cat. 11765054), 100 U/mL penicillin-streptomycin (Invitrogen, cat. 15140122), and 2.5% Matrigel (Corning Inc., Corning, NY, cat. 354248) for the first three passages. All PDCs were cultured in complete DMEM/F-12 media containing advanced DMEM/F-12 (Invitrogen, cat. 12634028), 4.9% defined fetal bovine serum, heat inactivated (HyClone Laboratories Inc., Logan, UT, cat. SH30070.03HI), 389 ng/mL hydrocortisone (Sigma-Aldrich, cat. H4001), 9.7 ng/mL human EGF recombinant protein (Invitrogen, cat. PHG0313), 23.4 microg/mL adenine (Sigma-Aldrich, cat. A2786), 97.3 U/mL penicillin-streptomycin (Invitrogen, cat. 15140122), 1.9 mM L-glutamine (Invitrogen, cat. 25030081), and 9.7 microM Y-27632 dihydrochloride (Tocris Bioscience, Bristol, United Kingdom, cat. 1254). The PDCs were cultured in complete DMEM/F12 media without 10 microM Y-27632 dihydrochloride for at least two passages prior to the screen. The established cell lines NCI-H1341 and […] were cultured in DMEM/F-12, HEPES (Invitrogen, cat. 11330032), 5% defined fetal bovine serum (HyClone Laboratories Inc., cat. SH30070.03), ITS premix universal culture supplement [insulin (5 microg/mL), transferrin (5 microg/mL), and selenious acid (5 ng/mL)] […]

[1] = curve of first compound, second compound 0.1 µM
[2] = curve of first compound, second compound 0.316 µM
[3] = curve of first compound, second compound 1 µM
[4] = curve of first compound, second compound 3.16 µM
[5] = curve of first compound, second compound 10 µM
[6] = second compound 0.1 µM, first compound 0.0316 µM
[7] = second compound 0.1 µM, first compound 0.1 µM
[8] = second compound 0.1 µM, first compound 0.316 µM
[9] = second compound 0.1 µM, first compound 1 µM
[10] = second compound 0.1 µM, first compound 3.16 µM
[11] = second compound 0.1 µM, first compound 10 µM
[12] = second compound 0.316 µM, first compound 0.0316 µM
[13] = second compound 0.316 µM, first compound 0.1 µM
[14] = second compound 0.316 µM, first compound 0.316 µM
[15] = second compound 0.316 µM, first compound 1 µM
[16] = second compound 0.316 µM, first compound 3.16 µM
[17] = second compound 0.316 µM, first compound 10 µM
[18] = second compound 1 µM, first compound 0.0316 µM
[19] = second compound 1 µM, first compound 0.1 µM
[20] = second compound 1 µM, first compound 0.316 µM
[21] = second compound 1 µM, first compound 1 µM
[22] = second compound 1 µM, first compound 3.16 µM
[23] = second compound 1 µM, first compound 10 µM
[24] = second compound 3.16 µM, first compound 0.0316 µM
[25] = second compound 3.16 µM, first compound 0.1 µM
[26] = second compound 3.16 µM, first compound 0.316 µM
[27] = second compound 3.16 µM, first compound 1 µM
[28] = second compound 3.16 µM, first compound 3.16 µM
[29] = second compound 3.16 µM, first compound 10 µM
[30] = second compound 10 µM, first compound 0.0316 µM
[31] = second compound 10 µM, first compound 0.1 µM
[32] = second compound 10 µM, first compound 0.316 µM
[33] = second compound 10 µM, first compound 1 µM
[34] = second compound 10 µM, first compound 3.16 µM
[35] = second compound 10 µM, first compound 10 µM
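Also: luminescence taken as a proxy for viable cell amount.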
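For viability, T/C in this document: percent of DMSO vehicle control where 100% means growth equal to vehicle.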

Row | IC50 [1] | IC50 [2] | IC50 [3] | IC50 [4] | IC50 [5] | Structure (SMILES) | viability, T/C [6] | viability, T/C [7] | viability, T/C [8] | viability, T/C [9] | viability, T/C [12] | viability, T/C [13] | viability, T/C [14] | viability, T/C [15] | viability, T/C [18] | viability, T/C [19] | viability, T/C [20] | viability, T/C [21] | viability, T/C [24] | viability, T/C [25] | viability, T/C [26] | also measured
1 | 0.571 µM | 0.454 µM | 0.394 µM | < 0.0316 µM | < 0.0316 µM | COc1cccc2c1C(=O)c1c(O)c3c(c(O)c1C2=O)CC(O)(C(=O)CO)CC3OC1CC(N)C(O)C(C)O1 (stereo not drawn) + Cc1cncc(-c2nc(NCCc3c[nH]c4ccccc34)c3ncn(C(C)C)c3n2)c1 | 76.6% | 74.6% | 64% | 36.8% | 79% | 77.8% | 58.3% | 29.8% | 84.2% | 79.9% | 53.7% | 27.1% | 41.6% | 44.3% | 39.5% | viability, T/C [10]: 5.61%; viability, T/C [11]: 0.77%; viability, T/C [16]: 3.48%; viability, T/C [17]: 0.76%; viability, T/C [22]: 1.11%; viability, T/C [23]: 0.75%; viability, T/C [27]: 15.8%; viability, T/C [28]: 0.78%; viability, T/C [29]: 0.47%; viability, T/C [30]: 2.11%; viability, T/C [31]: 2.97%; viability, T/C [32]: 4.27%; viability, T/C [33]: 0.39%; viability, T/C [34]: 0.31%; viability, T/C [35]: 0.58%
2 | > 10 µM | > 10 µM | > 10 µM | < 0.0316 µM | < 0.0316 µM | O=C(c1cc(Cc2n[nH]c(=O)c3ccccc23)ccc1F)N1CCN(C(=O)C2CC2)CC1 + Cc1cncc(-c2nc(NCCc3c[nH]c4ccccc34)c3ncn(C(C)C)c3n2)c1 | 105% | 98.5% | 99.3% | 84.1% | 90.7% | 103% | 95% | 95.5% | 108% | 95.9% | 99.8% | 99.4% | 40.2% | 43.1% | 51.7% | viability, T/C [10]: 93.4%; viability, T/C [11]: 72.5%; viability, T/C [16]: 89.4%; viability, T/C [17]: 80.8%; viability, T/C [22]: 98.3%; viability, T/C [23]: 78.1%; viability, T/C [27]: 46.2%; viability, T/C [28]: 40%; viability, T/C [29]: 43%; viability, T/C [30]: 0.8%; viability, T/C [31]: 0.83%; viability, T/C [32]: 0.8%; viability, T/C [33]: 0.79%; viability, T/C [34]: 0.66%; viability, T/C [35]: 1.47%
3 | 0.514 µM | 0.678 µM | 0.306 µM | 0.406 µM | 0.592 µM | CC1COCCN1c1cc(-c2ccnn2C)c2ccnc(-c3ccn[nH]3)c2n1 (stereo not drawn) + Cc1ccccc1N=Nc1ccc(NC(=O)c2ccnn2C)c(C)c1 | 82.4% | 72% | 56.3% | 41.5% | 90.6% | 73.1% | 58.4% | 45.6% | 91.6% | 73.6% | 50% | 38.4% | 69.7% | 78% | 49.3% | viability, T/C (second compound 0.1 µM, first compound 0.00316 µM): 88.3%; viability, T/C (second compound 0.1 µM, first compound 0.01 µM): 88.5%; viability, T/C (second compound 0.316 µM, first compound 0.00316 µM): 98%; viability, T/C (second compound 0.316 µM, first compound 0.01 µM): 110%; viability, T/C (second compound 1 µM, first compound 0.00316 µM): 94.4%; viability, T/C (second compound 1 µM, first compound 0.01 µM): 79.8%; viability, T/C (second compound 3.16 µM, first compound 0.00316 µM): 92.8%; viability, T/C (second compound 3.16 µM, first compound 0.01 µM): 79.7%; viability, T/C [27]: 37%; viability, T/C (second compound 10 µM, first compound 0.00316 µM): 86.6%; viability, T/C (second compound 10 µM, first compound 0.01 µM): 81.7%; viability, T/C [30]: 97.2%; viability, T/C [31]: 72.9%; viability, T/C [32]: 59.8%; viability, T/C [33]: 42.8%
4 | – | – | – | – | – | COc1cc(Nc2ncc3c(n2)-c2ccc(Cl)cc2C(c2c(F)cccc2OC)=NC3)ccc1C(=O)O | – | – | – | – | – | – | – | – | – | – | – | – | – | – | – | viability, T/C (compound 0.0316 µM): 87.2% and 100% and 93.8%; viability, T/C (compound 0.1 µM): 81% and 83.4% and 82.2%; viability, T/C (compound 0.316 µM): 67.8% and 64.2% and 72.7%; viability, T/C (compound 1 µM): 76.2% and 77.1% and 73.1%; viability, T/C (compound 3.16 µM): 67% and 61% and 63.3%; viability, T/C (compound 10 µM): 37.5% and 36.6% and 41.4%; IC50 (curve of compound): 5.98 µM and 5.06 µM and 6.78 µM
5 | 3.6 µM | 1.47 µM | 0.882 µM | 0.617 µM | 0.638 µM | NS(=O)(=O)OCC1CC(n2ccc3c(NC4CCc5ccccc54)ncnc32)CC1O (stereo not drawn) + CC(CO)NC(=O)c1cc(-c2ccc(Cl)cc2)nn(-c2cnn(C)c2)c1=O | 94.1% | 99.9% | 81.9% | 71% | 96.4% | 88.9% | 78.9% | 51.7% | 89% | 76.7% | 65.4% | 48.6% | 78.4% | 73.5% | 60.8% | viability, T/C [10]: 51.7%; viability, T/C [11]: 38.3%; viability, T/C [16]: 45%; viability, T/C [17]: 36.2%; viability, T/C [22]: 36.8%; viability, T/C [23]: 38.5%; viability, T/C [27]: 42.5%; viability, T/C [28]: 34.3%; viability, T/C [29]: 34.2%; viability, T/C [30]: 78.5%; viability, T/C [31]: 72.6%; viability, T/C [32]: 60.5%; viability, T/C [33]: 43.4%; viability, T/C [34]: 34.1%; viability, T/C [35]: 31.9%
6 | – | – | – | – | – | Cc1cncc(-c2nc(NCCc3c[nH]c4ccccc34)c3ncn(C(C)C)c3n2)c1 | – | – | – | – | – | – | – | – | – | – | – | – | – | – | – | viability, T/C (compound 10 µM): 0.88% [middle of 19 runs]
